# Results: patent US10711278B2, “Genetically altered alfalfa producing clovamide and/or related hydroxycinnamoyl amides” (The United States of America, as represented by the …, priority 2015, dated 2020)
# Substitutions are numbered along the chain they refer to.
# B1: hydroxycinnamoyl-CoA:L-DOPA/tyrosine hydroxycinnamoyl transferase 1 (protein)
# chain: MVTIIASHTVIPEEPTPQGPFWLSDMDQVVRIRDVPTLYIYKTPKKNQENKNIVETFKNSLSKILVHYYPIAGRLCYIEGGRLELNLNAKGAILVEAETEKTMNDYGDFSHFDTIKELVPMIDYNQPIEEIPNFVVQLTNFKNNEGFAIGVAFLHPLSDGLGAIKFINSWAKIARGETLEANELPFLDRKLLKFSHTPLEPRFEHLELKPLPLILGRKDASEEKEKKTSATLLKLSSEQVDKLKKKANEEDVLGIQKKEYSRPYSKFEVISAHIWRCASKARELEDNQESVIRFIADVKNRMIPPLPKNYFGNALTQTATKGYIGEITSKPLGYVAQKIREATELINDEYIRSQIDVVRSFEHLDDARKMFIGEKARYFGNPNFNLTSWLSMPVYEADFGWGKPNYFGLADVSPHDRAVILLSPDDDGSVLVSFHFQIAHMELFNKYFYEEI
# modifications: Trifolium pratense
# B2: hydroxycinnamoyl-CoA:L-DOPA/tyrosine hydroxycinnamoyl transferase 2 (protein)
# chain: B1 chain with N140K, I255V, E285K, I346V, F436L
# modifications: Trifolium pratense
# Assays:
# [1] = cited from earlier work
# [2] = In-vitro hydroxycinnamoyl-CoA transferase activity of soluble E. coli extracts expressing HDT1 or HDT2, HPLC of products; assay type: biochemical, Trifolium pratense; conditions: expressed in E. coli; p-coumaroyl-, caffeoyl-, and feruloyl-CoA
# Text: Plasmids containing full-length red clover HDT coding regions (both HDT1 (SEQ ID NO: 1) and HDT2 (SEQ ID NO: 3)) were used as templates in PCR reactions with primers designed to introduce an […] restriction site at the start codons (ms886—SEQ ID NO: 13) and an XhoI site immediately following the stop codon (ms887—SEQ ID NO: 14) of each open reading frame. The resulting PCR products were digested with NcoI and XhoI and inserted into pET28a (Novagen, Madison, Wis.) digested with NcoI and XhoI. The insert is operably linked to the IPTG-inducible promoter contained in pET28. Each plasmid was sequenced to confirm correct sequence was generated.
# Each pET28 derivative containing HDT coding regions (pET28-HDT1 and pET28-HDT2) or pET28 (as a negative control) were transformed, individually, into BL21(DE3)RIL Codon Plus E. coli (Agilent Technologies, Santa Clara, Calif.). […] The soluble fraction was isolated, divided into single use aliquots, flash frozen in liquid nitrogen and stored at −80° C. until ready to use. […]
# The supernatant is analyzed for reaction products by HPLC. […]
Molecule,HDT activity ([1]; HCT2 gene product produced in E. coli),preference for p-coumaroyl-CoA and feruloyl-CoA donor substrates over caffeoyl-CoA ([1]; in-vitro),transfer of trans-hydroxycinnamoyl moiety from CoA derivative to L-DOPA or L-tyrosine [2]
hydroxycinnamoyl-CoA:malate hydroxycinnamoyl transferase [HMT],does not have HDT activity,five- to tenfold,
B1,,,capable of transferring a trans-hydroxycinnamoyl moiety
B2,,,capable of transferring a trans-hydroxycinnamoyl moiety
